How the values were obtained:
Serotonin, 5HT4 = assay: Receptor binding assay: Serotonin 5HT4; conditions: Test Compound @ 10 1 M
Serotonin, 5HT5A (hr) = molecular target: T1, Serotonin, 5HT5A (hr) (Homo sapiens, UniProt P47898); assay: Receptor binding assay: Serotonin 5HT5A; conditions: Test Compound @ 10 1 M
T1 construct: Novascreen (contract assay)

Adrenergic, Alpha 1B = assay: Receptor binding assay: Adrenergic Alpha 1B; conditions: Test Compound @ 10 1 M
Sigma 1 = assay: Receptor binding assay: Sigma 1; conditions: Test Compound @ 10 1 M
Serotonin, 5HT2C = assay: Receptor binding assay: Serotonin 5HT2C; conditions: Test Compound @ 10 1 M
[1] = tested on: Serotonin, 5HT1, non-selective; assay: Receptor binding assay: Serotonin 5HT1 non-selective; conditions: Test Compound @ 10 1 M
Serotonin Transporter = molecular target: T2, Serotonin Transporter (Homo sapiens, UniProt P31645); assay: Serotonin transporter (human) binding assay
T2 construct: Novascreen (contract assay)
T2 sequence (P31645 whole entry): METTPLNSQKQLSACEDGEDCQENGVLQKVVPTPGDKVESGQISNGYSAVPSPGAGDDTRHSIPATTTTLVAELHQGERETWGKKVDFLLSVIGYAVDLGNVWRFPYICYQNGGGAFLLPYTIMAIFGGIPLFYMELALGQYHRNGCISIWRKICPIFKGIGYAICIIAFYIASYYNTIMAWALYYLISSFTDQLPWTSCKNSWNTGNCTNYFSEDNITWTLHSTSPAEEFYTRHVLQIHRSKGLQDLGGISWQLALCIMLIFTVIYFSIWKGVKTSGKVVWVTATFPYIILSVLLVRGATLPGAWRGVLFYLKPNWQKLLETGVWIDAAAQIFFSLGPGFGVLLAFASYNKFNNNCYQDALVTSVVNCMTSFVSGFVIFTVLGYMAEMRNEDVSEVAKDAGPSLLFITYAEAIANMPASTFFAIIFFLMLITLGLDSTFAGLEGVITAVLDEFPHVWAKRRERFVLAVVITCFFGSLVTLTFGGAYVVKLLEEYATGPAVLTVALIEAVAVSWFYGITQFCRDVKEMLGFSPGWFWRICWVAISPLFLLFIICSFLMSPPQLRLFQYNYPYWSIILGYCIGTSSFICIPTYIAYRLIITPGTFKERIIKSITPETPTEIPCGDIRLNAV

Serotonin, 5HT6 (hr) = Serotonin, 5HT6 (hr) (Homo sapiens, UniProt P50406); assay: Receptor binding assay: Serotonin 5HT6; conditions: Test Compound @ 10 1 M
Chain of Serotonin, 5HT6 (hr) (P50406 whole entry): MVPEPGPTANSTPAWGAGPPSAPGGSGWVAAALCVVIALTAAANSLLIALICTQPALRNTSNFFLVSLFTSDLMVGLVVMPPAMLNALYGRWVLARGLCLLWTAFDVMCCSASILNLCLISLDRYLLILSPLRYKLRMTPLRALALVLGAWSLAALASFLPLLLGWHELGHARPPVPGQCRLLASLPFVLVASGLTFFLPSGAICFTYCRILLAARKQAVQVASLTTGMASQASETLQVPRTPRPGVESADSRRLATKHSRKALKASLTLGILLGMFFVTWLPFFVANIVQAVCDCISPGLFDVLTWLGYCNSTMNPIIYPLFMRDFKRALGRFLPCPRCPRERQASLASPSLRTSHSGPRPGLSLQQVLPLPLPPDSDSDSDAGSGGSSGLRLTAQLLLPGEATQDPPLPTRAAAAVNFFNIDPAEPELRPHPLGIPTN

Muscarinic, M2 (hr) = molecular target: T3, Muscarinic, M2 (hr) (Homo sapiens, UniProt P08172); assay: Receptor binding assay: Muscarinic M2; conditions: Test Compound @ 10 1 M
T3 construct: Novascreen (contract assay)
T3 sequence (P08172 whole entry): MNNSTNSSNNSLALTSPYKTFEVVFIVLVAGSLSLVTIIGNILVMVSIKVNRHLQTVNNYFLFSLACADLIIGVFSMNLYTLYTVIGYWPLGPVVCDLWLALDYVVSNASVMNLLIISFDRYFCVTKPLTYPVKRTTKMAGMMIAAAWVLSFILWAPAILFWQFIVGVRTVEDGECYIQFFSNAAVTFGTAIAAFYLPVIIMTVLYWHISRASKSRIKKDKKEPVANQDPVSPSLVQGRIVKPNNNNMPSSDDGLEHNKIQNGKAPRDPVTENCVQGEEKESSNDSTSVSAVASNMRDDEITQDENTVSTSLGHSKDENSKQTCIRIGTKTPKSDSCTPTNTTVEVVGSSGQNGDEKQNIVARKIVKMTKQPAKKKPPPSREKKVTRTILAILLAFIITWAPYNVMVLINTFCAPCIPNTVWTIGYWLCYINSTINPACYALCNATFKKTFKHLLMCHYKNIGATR

Opiate, Kappa (hr) = molecular target: T4, Opiate, Kappa (hr) (Homo sapiens, UniProt P41145); assay: Receptor binding assay: Opiate Kappa; conditions: Test Compound @ 10 1 M
T4 construct: Novascreen (contract assay)
T4 sequence (P41145 whole entry): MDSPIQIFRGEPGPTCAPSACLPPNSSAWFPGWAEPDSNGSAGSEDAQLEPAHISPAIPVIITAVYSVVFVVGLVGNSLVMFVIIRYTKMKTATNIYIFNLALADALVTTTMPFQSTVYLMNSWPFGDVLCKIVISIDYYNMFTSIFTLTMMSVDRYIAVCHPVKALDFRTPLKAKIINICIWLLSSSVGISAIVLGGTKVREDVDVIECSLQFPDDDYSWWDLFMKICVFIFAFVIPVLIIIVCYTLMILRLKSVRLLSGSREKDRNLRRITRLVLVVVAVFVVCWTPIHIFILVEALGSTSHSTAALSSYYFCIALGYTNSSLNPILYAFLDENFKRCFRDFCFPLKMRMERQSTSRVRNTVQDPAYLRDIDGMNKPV

[2] = tested on: spinal nerve ligation model of neuropathic pain, tactile allodynia; assay: Spinal nerve ligation model of neuropathic pain, tactile allodynia; format: in vivo; conditions: rat, up to 100 mg/kg
Protocol: 1-[2-dimethylamino-1-(4-phenol)ethyl]-cis-1,4-cyclohexandiol was evaluated in two in-vivo animal models for pain, including a Visceral Pain model and a Neuropathic Pain model.
Surgical procedures were performed under 4% isoflurane/O2 anesthesia, delivered via nose cone and maintained at 2.5% for the duration of the surgery. After induction of anesthesia, the incision site was shaved and prepared in a sterile manner. Spinal nerve ligation (SNL) surgery was performed as previously described [Kim, S. H. and Chung, J. M., An experimental model for peripheral neuropathy produced by segmental spinal nerve ligation in the rat, Pain, 50 (1992) 355-63] with the exception that nerve injury was produced by tight ligation of the left L5 spinal nerve. Briefly, a midline incision was made and the L5 transverse process was removed and the nerve was tightly ligated with 6-0 silk suture material and the wound was closed in layers with 4-0 vicryl suture and the skin closed with wound clips.

GABA A, Benzo, central = assay: Receptor binding assay: GABA A benzo central; conditions: Test Compound @ 10 1 M
rat tail flick assay = assay: Rat tail flick assay (acute pain); format: in vivo; conditions: up to 30 mg/kg po
Pharmacokinetics in dog = format: in vivo; conditions: plasma, male dogs
Protocol: Preclinical pharmacokinetics of 1-[2-dimethylamino-1-(4-phenol)ethyl]-cis-1,4-cyclohexandiol was determined after a single 2.5 mg/kg IV bolus and 7.5 mg/kg oral dose in male dogs. […] The oral bioavailability was high (60%).

[3] = tested on: Nicotinic (a-bungarotoxin insens); format: binding; conditions: Test Compound @ 10 1 M
Glutamate, NMDA Glycine = assay: Receptor binding assay: Glutamate NMDA Glycine; conditions: Test Compound @ 10 1 M
Dopamine, D2s (hr) = Dopamine, D2s (hr) (Homo sapiens, UniProt P14416); assay: Receptor binding assay: Dopamine D2s; conditions: Test Compound @ 10 1 M
Chain of Dopamine, D2s (hr) (P14416 1-414 isoform P14416-2): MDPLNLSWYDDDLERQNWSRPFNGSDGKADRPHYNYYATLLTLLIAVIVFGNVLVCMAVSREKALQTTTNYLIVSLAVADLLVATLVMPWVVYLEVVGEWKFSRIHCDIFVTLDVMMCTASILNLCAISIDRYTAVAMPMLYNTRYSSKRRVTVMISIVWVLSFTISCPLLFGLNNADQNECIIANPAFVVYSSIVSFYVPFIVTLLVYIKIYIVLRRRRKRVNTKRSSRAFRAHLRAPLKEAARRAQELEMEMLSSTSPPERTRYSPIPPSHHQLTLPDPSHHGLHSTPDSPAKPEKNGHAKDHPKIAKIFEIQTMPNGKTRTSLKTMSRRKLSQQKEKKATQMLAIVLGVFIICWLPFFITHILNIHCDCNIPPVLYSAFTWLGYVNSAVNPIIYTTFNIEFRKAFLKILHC

[4] = tested on: Glycine, Strychnine-sensitive; assay: Receptor binding assay: Glycine strychnine-sensitive; conditions: Test Compound @ 10 1 M
Cannabinoid, CB1 (hr) = Cannabinoid, CB1 (hr) (Homo sapiens, UniProt P21554); assay: Receptor binding assay: Cannabinoid CB1; conditions: Test Compound @ 10 1 M
Chain of Cannabinoid, CB1 (hr) (P21554 whole entry): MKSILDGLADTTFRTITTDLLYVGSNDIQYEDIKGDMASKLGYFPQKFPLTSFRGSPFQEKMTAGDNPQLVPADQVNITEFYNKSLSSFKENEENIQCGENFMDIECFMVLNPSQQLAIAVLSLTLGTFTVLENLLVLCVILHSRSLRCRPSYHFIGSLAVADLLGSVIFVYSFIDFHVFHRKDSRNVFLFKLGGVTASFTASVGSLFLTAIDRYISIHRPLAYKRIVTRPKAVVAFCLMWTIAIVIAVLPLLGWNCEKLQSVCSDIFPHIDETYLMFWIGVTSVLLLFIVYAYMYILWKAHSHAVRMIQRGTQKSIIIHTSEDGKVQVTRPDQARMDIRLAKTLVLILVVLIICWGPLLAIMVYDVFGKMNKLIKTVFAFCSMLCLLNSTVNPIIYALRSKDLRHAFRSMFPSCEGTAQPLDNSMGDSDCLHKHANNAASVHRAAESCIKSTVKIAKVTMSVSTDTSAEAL

Sigma 2 = assay: Receptor binding assay: Sigma 2; conditions: Test Compound @ 10 1 M
Glutamate, AMPA Site = assay: Receptor binding assay: Glutamate AMPA site; conditions: Test Compound @ 10 1 M
Opiate, Mu (hr) = molecular target: T5, Opiate, Mu (hr) (Homo sapiens, UniProt P35372); assay: Receptor binding assay: Opiate Mu; conditions: Test Compound @ 10 1 M
T5 construct: Novascreen (contract assay)
T5 sequence (P35372 whole entry): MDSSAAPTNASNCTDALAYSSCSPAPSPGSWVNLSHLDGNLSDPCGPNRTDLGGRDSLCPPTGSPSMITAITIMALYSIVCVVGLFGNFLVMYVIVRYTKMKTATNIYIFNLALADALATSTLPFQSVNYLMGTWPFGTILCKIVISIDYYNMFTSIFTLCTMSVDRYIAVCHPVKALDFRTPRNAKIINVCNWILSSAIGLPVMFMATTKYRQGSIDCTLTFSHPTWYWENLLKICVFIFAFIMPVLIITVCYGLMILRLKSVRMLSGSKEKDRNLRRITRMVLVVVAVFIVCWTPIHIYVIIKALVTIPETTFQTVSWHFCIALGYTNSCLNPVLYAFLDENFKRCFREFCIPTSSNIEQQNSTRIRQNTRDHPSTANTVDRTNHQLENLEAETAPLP

Dopamine Transporter = assay: Dopamine transporter binding assay; conditions: Test Compound @ 10 1 M
Melatonin = assay: Receptor binding assay: Melatonin; conditions: Test Compound @ 10 1 M
Adenosine A2A (hr) = Adenosine A2A (hr) (Homo sapiens, UniProt P29274); assay: Receptor binding assay: Adenosine A2A; conditions: Test Compound @ 10 1 M
Chain of Adenosine A2A (hr) (P29274 whole entry): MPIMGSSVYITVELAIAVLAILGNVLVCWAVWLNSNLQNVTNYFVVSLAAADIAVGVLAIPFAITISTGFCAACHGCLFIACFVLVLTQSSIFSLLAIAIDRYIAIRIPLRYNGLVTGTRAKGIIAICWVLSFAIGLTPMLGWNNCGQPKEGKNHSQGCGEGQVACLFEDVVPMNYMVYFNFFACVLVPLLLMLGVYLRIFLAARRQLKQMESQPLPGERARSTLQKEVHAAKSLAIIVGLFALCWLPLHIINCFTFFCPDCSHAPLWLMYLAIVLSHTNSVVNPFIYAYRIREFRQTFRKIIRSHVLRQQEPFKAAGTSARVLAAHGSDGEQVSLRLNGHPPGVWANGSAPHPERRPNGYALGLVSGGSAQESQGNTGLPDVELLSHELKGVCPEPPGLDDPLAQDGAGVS

[5] = tested on: Glutamate, NMDA agonist Site; assay: Receptor binding assay: Glutamate NMDA agonist site; conditions: Test Compound @ 10 1 M
[6] = In vitro metabolism in hepatic microsomes, human; format: in vitro ADME; conditions: both sexes, mixed male and female humans, read-out: t1/2 in hepatic microsomes
Protocol: In vitro metabolism of 1-[2-dimethylamino-1-(4-phenol)ethyl]-cis-1,4-cyclohexandiol was conducted in the hepatic microsomes of Sprague-Dawley rats, male dogs, male monkeys and mixed male and female humans to characterize metabolic stability and identification of metabolites. 1-[2-dimethylamino-1-(4-phenol)ethyl]-cis-1,4-cyclohexandiol was stable (t1/2>60 minutes) in hepatic microsomes indicating Phase I and II metabolism was minimal in all species.

pH-Solubility = format: physicochemical; conditions: free base
rat hot plate assay = assay: Rat hot plate assay (acute pain); format: in vivo; conditions: up to 30 mg/kg po
Dopamine, D4.4 (hr) = Dopamine, D4.4 (hr) (Homo sapiens, UniProt P21917); assay: Receptor binding assay: Dopamine D4.4; conditions: Test Compound @ 10 1 M
Chain of Dopamine, D4.4 (hr) (P21917 whole entry): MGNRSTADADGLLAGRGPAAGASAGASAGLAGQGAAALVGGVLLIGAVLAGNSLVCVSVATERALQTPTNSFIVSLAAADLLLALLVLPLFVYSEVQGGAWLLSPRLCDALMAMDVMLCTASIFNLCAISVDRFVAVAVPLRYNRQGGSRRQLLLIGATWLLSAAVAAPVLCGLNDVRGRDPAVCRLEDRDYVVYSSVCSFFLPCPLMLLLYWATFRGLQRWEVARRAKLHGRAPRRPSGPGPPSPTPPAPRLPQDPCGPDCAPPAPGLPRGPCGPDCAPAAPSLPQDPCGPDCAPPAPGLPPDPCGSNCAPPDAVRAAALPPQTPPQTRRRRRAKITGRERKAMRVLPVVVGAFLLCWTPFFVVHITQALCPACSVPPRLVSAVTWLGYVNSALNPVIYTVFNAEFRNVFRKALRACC

T1 sequence (P47898 whole entry): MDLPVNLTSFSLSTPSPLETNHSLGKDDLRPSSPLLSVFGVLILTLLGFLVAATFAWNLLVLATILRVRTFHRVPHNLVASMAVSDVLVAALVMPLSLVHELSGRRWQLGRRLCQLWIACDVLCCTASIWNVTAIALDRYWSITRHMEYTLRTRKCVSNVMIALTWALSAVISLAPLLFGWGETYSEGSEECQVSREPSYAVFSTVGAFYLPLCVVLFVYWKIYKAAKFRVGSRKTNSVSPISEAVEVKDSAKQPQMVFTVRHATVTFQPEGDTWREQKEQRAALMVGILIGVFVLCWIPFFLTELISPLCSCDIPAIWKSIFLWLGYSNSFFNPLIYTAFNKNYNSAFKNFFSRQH

CN(C)CC(c1ccc(O)cc1)C1(O)CCC(O)CC1 (stereo not drawn) [1-[2-dimethylamino-1-(4-phenol)ethyl]-cis-1,4-cyclohexandiol]
Receptor Binding % Inhibition (Serotonin, 5HT4): 3.98% | inhibition at 10 µM (Serotonin, 5HT5A (hr)): 19.9% | Receptor Binding % Inhibition (Adrenergic, Alpha 1B): 11.27% | Receptor Binding % Inhibition (Sigma 1): 2.96% | Receptor Binding % Inhibition (Serotonin, 5HT2C): 10.05% | Receptor Binding % Inhibition [1]: 5.09% | inhibition at 10 µM (Serotonin Transporter; Serotonin Transporter, Test Compound @ 10 1 M, read-out: Receptor Binding % Inhibition): 94.5% | serotonin reuptake inhibition activity (Serotonin Transporter; interpretation of the binding data in words): very good | inhibition at 10 µM (Serotonin, 5HT6 (hr)): 17.1% | inhibition at 10 µM (Muscarinic, M2 (hr)): 12% | inhibition at 10 µM (Opiate, Kappa (hr)): -4.17% | reversal of tactile allodynia [2]: not found to reverse | Receptor Binding % Inhibition (GABA A, Benzo, central): 0.20% | effect on acute pain (rat tail flick assay): not found to affect acute pain | bioavailability (Pharmacokinetics in dog; 7.5 mg/kg oral vs 2.5 mg/kg IV): 60% | clearance (Pharmacokinetics in dog; single 2.5 mg/kg IV bolus): ~7 mL/min/kg | half-life (Pharmacokinetics in dog; single 2.5 mg/kg IV bolus, read-out: apparent terminal half-life (t1/2) (converted)): 5.6 h | Vd (Pharmacokinetics in dog; single 2.5 mg/kg IV bolus, read-out: apparent volume of distribution (VSS)): 1.9 L/kg | half-life (Pharmacokinetics in dog; single oral dose of 7.5 mg/kg, read-out: terminal oral half-life (converted)): 6 h | Receptor Binding % Inhibition [3]: −1.07% | Receptor Binding % Inhibition (Glutamate, NMDA Glycine): 2.24% | inhibition at 10 µM (Dopamine, D2s (hr)): 6.17% | Receptor Binding % Inhibition [4]: −2.38% | inhibition at 10 µM (Cannabinoid, CB1 (hr)): 8.11% | Receptor Binding % Inhibition (Sigma 2): 1.00% | Receptor Binding % Inhibition (Glutamate, AMPA Site): 2.50% | inhibition at 10 µM (Opiate, Mu (hr)): -0.35% | Receptor Binding % Inhibition (Dopamine Transporter): 8.49% | Receptor Binding % Inhibition (Melatonin): 11.20% | Receptor Binding % Inhibition (Adenosine A2A (hr)): 7.68% | Receptor Binding % Inhibition [5]: −2.99% | half-life [6]: > 1 h | pH-Solubility (pH-Solubility; Final pH 1.4): Final pH 1.4 24.2 mg/ml | pH-Solubility (pH-Solubility; Final pH 3.99): Final pH 3.99 24.1 mg/ml | pH-Solubility (pH-Solubility; Final pH 5.79): Final pH 5.79 26.7 mg/ml | pH-Solubility (pH-Solubility; Final pH 8.4): Final pH 8.4 22.7 mg/ml | effect on acute pain (rat hot plate assay): not found to affect acute pain | inhibition at 10 µM (Dopamine, D4.4 (hr)): 3.39%
